Experimental data: patent US11603377B2, “MTORC1 modulators and uses thereof” (Aeovian Pharmaceuticals, Inc., priority 2020, dated 2023)

Experiments:
[1] = biological target: FKBP12 (Homo sapiens (Human), UniProt P62942); assay: SPR assay to determine binding affinity to FKBP12 (direct binding); settings: immobilized biotinylated avi-FKBP12
[2] = biological target: FKBP51 (Homo sapiens (Human), UniProt Q13451); assay: SPR assay to determine binding affinity to FKBP51 (direct binding); settings: immobilized biotinylated avi-FKBP51
Procedure, shortened: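 Biotinylated avi-FKBP51 captured on streptavidin chip to about 2000 RU. Compounds injected at 0.5-1000 nM (8 points, 3-fold) for 120 s contact and 3600 s dissociation in 50 mM HEPES pH 7.5, 150 mM NaCl, 2 mM MgCl2, 1 mM DTT, 0.05% Tween-20, 1% DMSO.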

[3] = biological target: FKBP12 / FRB ternary complex (Homo sapiens (Human), UniProt P42345+P62942); assay: SPR assay to characterize ternary complex formation with FKBP12 (FRB binding to rapalog-saturated FKBP12); settings: FRB dilutions with 100 nM rapalog on immobilized FKBP12
Procedure, shortened: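 Biotinylated avi-FKBP12 immobilized (~100 RU) on streptavidin chip; A-B-A injections kept FKBP12 saturated with 100 nM rapalog while FRB (0.00011–20 μM, 3-fold, 12 points) was injected 120 s.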

[4] = biological target: FKBP51 / FRB ternary complex (Homo sapiens (Human), UniProt P42345+Q13451); assay: SPR assay to characterize ternary complex formation with FKBP51 (FRB binding to rapalog-saturated FKBP51); settings: FRB dilutions with 100 nM rapalog on immobilized FKBP51
Procedure, shortened: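 SPR with biotinylated avi-FKBP51 on streptavidin chip (~200 RU); FRB (0.00011-20 μM, 3-fold series) injected with 100 nM rapalog, A-B-A mode keeping FKBP saturated with rapalog.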

[5] = biological target: mTORC1 (Homo sapiens (Human), UniProt P42345+P62942); assay: mTORC1 inhibition, AlphaLISA of Phospho-p70 S6 kinase (p70S6K pT389) in PC-3 cells; type: cell-based; settings: inhibition of p70S6K pT389 levels
[6] = biological target: mTORC2 (Homo sapiens (Human), UniProt P42345+P62942); assay: mTORC2 inhibition, AlphaLISA of Phospho-AKT (pAKT pS473) in PC3 cells; type: cell-based

Chain of FKBP51 (Q13451 whole entry): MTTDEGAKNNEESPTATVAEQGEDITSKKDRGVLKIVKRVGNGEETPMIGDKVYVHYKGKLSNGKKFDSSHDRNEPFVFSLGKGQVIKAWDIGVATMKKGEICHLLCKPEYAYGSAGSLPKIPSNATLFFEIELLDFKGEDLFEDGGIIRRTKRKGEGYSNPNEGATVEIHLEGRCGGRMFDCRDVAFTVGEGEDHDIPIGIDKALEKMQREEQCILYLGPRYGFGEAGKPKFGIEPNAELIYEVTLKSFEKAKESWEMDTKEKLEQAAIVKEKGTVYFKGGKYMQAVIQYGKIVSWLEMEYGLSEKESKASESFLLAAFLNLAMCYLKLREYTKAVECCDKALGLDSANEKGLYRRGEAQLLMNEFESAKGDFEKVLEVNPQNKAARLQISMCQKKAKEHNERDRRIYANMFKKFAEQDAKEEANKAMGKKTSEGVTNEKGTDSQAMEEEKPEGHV
Chain of FKBP12 (P62942 whole entry): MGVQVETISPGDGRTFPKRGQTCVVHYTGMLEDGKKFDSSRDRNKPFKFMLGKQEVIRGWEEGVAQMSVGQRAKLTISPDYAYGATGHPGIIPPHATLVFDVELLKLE

Compound | Kd [1] | Kd [2] | Kd [3] | Kd [4] | IC50 [5] | mTORC2 % inhibition at 1 uM [6]
COC1CC(CC(C)C2CC(=O)C(C)C=C(C)C(O)C(OC)C(=O)C(C)CC(C)C=CC=CC=C(C)C(OCC3CC3)CC3CCC(C)C(O)(O3)C(=O)C(=O)N3CCCCC3C(=O)O2)CCC1OCCCO (stereo not drawn) [Compound 43] | > 0.001 µM | > 0.1 µM | < 0.3 µM | < 0.3 µM | > 0.0008 µM | C (C≥40% and less than 60% inhibition at 1 uM)
COC1CC(CC(C)C2CC(=O)C(C)C=C(C)C(O)C(OC)C(=O)C(C)CC(C)C=CC=CC=C(C)C(OCC3CCC3)CC3CCC(C)C(O)(O3)C(=O)C(=O)N3CCCCC3C(=O)O2)CCC1OCCCO (stereo not drawn) [Compound 44] | > 0.001 µM | > 0.1 µM | < 0.3 µM | > 0.8 µM | 0.0001 to 0.0008 µM | C (C≥40% and less than 60% inhibition at 1 uM)
COC1CC(CC(C)C2CC(=O)C(C)C=C(C)C(O)C(OC)C(=O)C(C)CC(C)C=CC=CC=C(C)C(OCC3CCC3)CC3CCC(C)C(O)(O3)C(=O)C(=O)N3CCCCC3C(=O)O2)CCC1OCCO (stereo not drawn) [Compound 45] | > 0.001 µM | > 0.1 µM | < 0.3 µM | < 0.3 µM | > 0.0008 µM | B (B>20% and less than 40% inhibition at 1 uM)
COC1CC(CC(C)C2CC(=O)C(C)C=C(C)C(O)C(OC)C(=O)C(C)CC(C)C=CC=CC=C(C)C(OC3CC3)CC3CCC(C)C(O)(O3)C(=O)C(=O)N3CCCCC3C(=O)O2)CCC1OCCO (stereo not drawn) [Compound 46] | > 0.001 µM | > 0.1 µM | 0.3 to 0.8 µM | 0.3 to 0.8 µM | 0.0001 to 0.0008 µM | B (B>20% and less than 40% inhibition at 1 uM)
COC1CC(CC(C)C2CC(=O)C(C)C=C(C)C(O)C(OC)C(=O)C(C)CC(C)C=CC=CC=C(C)C(OC3CC3)CC3CCC(C)C(O)(O3)C(=O)C(=O)N3CCCCC3C(=O)O2)CCC1OCCO (stereo not drawn) [Compound 47] | > 0.001 µM | > 0.1 µM | < 0.3 µM | > 0.8 µM | > 0.0008 µM | B (B>20% and less than 40% inhibition at 1 uM)
CCOC(=O)COC1CCC(CC(C)C2CC(=O)C(C)C=C(C)C(O)C(OC)C(=O)C(C)CC(C)C=CC=CC=C(C)C(OC3CC3)CC3CCC(C)C(O)(O3)C(=O)C(=O)N3CCCCC3C(=O)O2)CC1OC (stereo not drawn) [Compound 48] | > 0.001 µM | > 0.1 µM | 0.3 to 0.8 µM | > 0.8 µM | > 0.0008 µM | A (A ≤20% inhibition at 1 micro Molar (uM))
CCOC(=O)COC1CCC(CC(C)C2CC(=O)C(C)C=C(C)C(O)C(OC)C(=O)C(C)CC(C)C=CC=CC=C(C)C(OCC3CCC3)CC3CCC(C)C(O)(O3)C(=O)C(=O)N3CCCCC3C(=O)O2)CC1OC (stereo not drawn) [Compound 49] | < 0.0003 µM | > 0.1 µM | 0.3 to 0.8 µM | > 0.8 µM | > 0.0008 µM | B (B>20% and less than 40% inhibition at 1 uM)
CCOC(=O)COC1CCC(CC(C)C2CC(=O)C(C)C=C(C)C(O)C(OC)C(=O)C(C)CC(C)C=CC=CC=C(C)C(OCC3CC3)CC3CCC(C)C(O)(O3)C(=O)C(=O)N3CCCCC3C(=O)O2)CC1OC (stereo not drawn) [Compound 50] | > 0.001 µM | > 0.1 µM | 0.3 to 0.8 µM | > 0.8 µM | > 0.0008 µM | B (B>20% and less than 40% inhibition at 1 uM)
CCOC(=O)COC1CCC(CC(C)C2CC(=O)C(C)C=C(C)C(O)C(OC)C(=O)C(C)CC(C)C=CC=CC=C(C)C(OCC3CC3)CC3CCC(C)C(O)(O3)C(=O)C(=O)N3CCCCC3C(=O)O2)CC1OC (stereo not drawn) [Compound 51] | > 0.001 µM | > 0.1 µM | 0.3 to 0.8 µM | > 0.8 µM | > 0.0008 µM | A (A ≤20% inhibition at 1 micro Molar (uM))
COC1CC(CC(C)C2CC(=O)C(C)C=C(C)C(O)C(OC)C(=O)C(C)CC(C)C=CC=CC=C(C)C(OC3CC3)CC3CCC(C)C(O)(O3)C(=O)C(=O)N3CCCCC3C(=O)O2)CCC1OCCCO (stereo not drawn) [Compound 52] | 0.0003 to 0.001 µM | > 0.1 µM | < 0.3 µM | > 0.8 µM | 0.0001 to 0.0008 µM | B (B>20% and less than 40% inhibition at 1 uM)
